Assays:
NIH 3T3 fibroblasts = assay: Thymidine incorporation (mitogen potentiation), NIH 3T3; assay type: cell-based, mouse; settings: bFGF 15 ng/ml or PDGF-BB 30 ng/ml
Method: More specifically, NIH 3T3 fibroblast cells were plated on 24-well plates at 3×10^4 cells/well and grown in DMEM with 10% fetal bovine serum (Intergen Co., Purchase, N.Y.) for 3-4 days and incubated with medium containing 0.2% FBS for the following 48 hours. The following compounds, at the parenthetically noted final concentrations, were then added to the plated cells in fresh DMEM containing 0.2% fbs and [^3H]-thymidine (1 μCi/ml final concentration; ICN Biomedicals, Inc., Costa Mesa, Calif.): bFGF (15 ng/ml), PDGF-BB (30 ng/ml), and murine Cyr61 (0.5-5 μg/ml). These compounds were added to individual plates according to the following pattern: 1) no supplementation; 2) murine Cyr61; 3) bFGF; 4) murine Cyr61 and bFGF; 5) PDGF-BB; and 6) murine Cyr61 and PDGF. After 18-20 hours of incubation, cells were washed with PBS and fixed with 10% trichloroacetic acid. DNA was dissolved in 0.1 N NaOH and thymidine incorporation was determined. […] Without any supplements, 3T3 cells incorporated approximately 1.8×10^4 cpm of [^3H]-thymidine, in the presence or absence of Cyr61. […]
DNA synthesis for HUVE cells and NIH 3T3 fibroblasts was measured by thymidine incorporation as described previously (Kireeva et al., [1996]) with minor modifications. […] Thymidine incorporation into the trichloroacetic acid-insoluble fraction was determined after 24 hour incubation. […]

cornea = assay: Cornea assay for angiogenic factors; assay type: in vivo, rat; settings: FGF 0.15 μM (six animals); Cyr61 1 μg/ml (seven animals)
Text: Another assay for modulators of angiogenesis is an in vivo assay for assessing the effect of a suspected modulator in the presence of an ECM signaling molecule-related biomaterial, such as Cyr61, on angiogenesis is the Cornea Assay. The Cornea Assay takes advantage of the absence of blood vessels in the cornea, which in the presence of an angiogenic factor, results in the detectable development of capillaries extending from the sclera into the cornea. Friedlander et al., Science 270:1500-1502 (1995). This ingrowth of new blood vessels from the sclera can be microscopically monitored. Further, the visually determined rate of migration can be used to assess changes in the rate of angiogenesis. […] Subsequently, eyes containing implants are visually observed for growth of the readily visible blood vessels within the eye. […]
Although rats of various sizes can be used in the cornea assay, a preferred size for the rats is 150-200 g/animal. […] Once the cornea pocket is made, the spatula is removed and the distance between the limbus and base of the pocket is measured to make sure the separation is at least about 1 mm. […]
Following surgery, animals are examined daily for seven days with the aid of a stereomicroscope to check for inflammation and responses. […] During this seven day period, animals are monitored for implant position and corneal exudate. […]

bFGF: Growth factor used as positive control [reference compound]
[3H]-thymidine incorporation, growth factor alone (NIH 3T3 fibroblasts): about 1.2×10^5 cpm | eyes showing blood vessel growth after seven days (cornea): all six

From patent publication US7521540B2, “CYR61 compositions and methods” (Munin Corporation, priority 1996, dated 2009)
